Assay results published in PMC12288460, “The Agrobacterium fabrum efflux pump PecM is produced in response to the plant exudate 4-hydroxybenzaldehyde to avoid disruption of central metabolism” (Journal of Bacteriology, 2025).

Biological target: T1, PecS (Agrobacterium fabrum, UniProt Q7D1T4)
T1 construct: full length, N-terminal His6-tag kept (pET100), E. coli BL21(DE3)pLysS; 18,923 Da tagged; dimer by known biology of MarR family
Experiment: DNase I footprinting of pecS-pecM DNA, loss of PecS protection
Conditions: 86 nM PecS, 250 mM Tris pH 8.0, 100 mM NaCl, room temperature, relief of DNA binding

T1 sequence (Q7D1T4 entry or part of it): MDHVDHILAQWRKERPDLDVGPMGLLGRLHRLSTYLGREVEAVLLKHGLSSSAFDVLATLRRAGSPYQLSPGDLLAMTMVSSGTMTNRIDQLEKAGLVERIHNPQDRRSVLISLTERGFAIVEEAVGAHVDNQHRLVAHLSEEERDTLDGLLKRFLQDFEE

Compound | DNase I footprinting of pecS-pecM DNA, loss of PecS protection (2.5 mM urate (dissolved in 0.4 M NaOH)) | DNase I footprinting of pecS-pecM DNA, loss of PecS protection (10 mM xanthine (dissolved in 0.4 M NaOH))
O=c1[nH]c(=O)c2[nH]c(=O)[nH]c2[nH]1 [urate] | This result indicates a direct interaction between these purines and PecS | –
O=c1[nH]c(=O)c2[nH]cnc2[nH]1 [xanthine] | – | This result indicates a direct interaction between these purines and PecS
